Data taken from ChEMBL document CHEMBL1136121, “Side-chain-to-tail thiolactone peptide inhibitors of the staphylococcal quorum-sensing system” (Bioorg Med Chem Lett, 2003).
Positions of bridges follow the written chain, without caps; N, C: chain ends. Non-standard residues stand in square brackets, D forms with d. Residues, ends and D or L forms follow the SMILES beside them. Abu = CC[C@H](N)C(=O)O

Key:
Staphylococcus aureus [1] = experiment: Compound tested to inhibit staphylococcal AgrC-2; type: functional, organism-based
Staphylococcus aureus [2] = experiment: Compound tested to inhibit staphylococcal AgrC-1; type: functional, organism-based

SMILES	IC50 (Staphylococcus aureus [1])	IC50 (Staphylococcus aureus [2])
CC[C@H](C)[C@@H]1NC(=O)[C@@H](Cc2ccccc2)NC(=O)[C@H](C)NC(=O)[C@H](NC(=O)[C@@H](NC(=O)[C@H](CO)NC(=O)CCCOc2ccc(Cc3ccccc3)cc2)[C@@H](C)O)CSC(=O)[C@H](CCSC)NC1=O	19 nM	295 nM
CC[C@H](C)[C@H]1NC(=O)[C@@H](Cc2ccccc2)NC(=O)[C@@H](C)NC(=O)[C@H](NC(=O)[C@@H](NC(=O)[C@H](CO)NC(=O)CCCOc2ccc(C(=O)c3ccccc3)cc2)[C@@H](C)O)CSC(=O)[C@@H](CCSC)NC1=O	18 nM	303 nM
CC[C@@H]1NC(=O)[C@@H](NC(=O)[C@@H](NC(=O)[C@H](CO)NC(=O)[C@@H](N)Cc2ccc(O)cc2)[C@@H](C)O)CSC(=O)[C@H](CCSC)NC(=O)[C@H]([C@@H](C)CC)NC(=O)[C@H](Cc2ccccc2)NC1=O (H-YSTC[Abu]FIM; thioester 4-C)	2.8 nM	137 nM
CC[C@H](C)[C@@H]1NC(=O)[C@H](Cc2ccccc2)NC(=O)[C@H](C)NC(=O)[C@@H](NC(=O)[C@@H](NC(=O)[C@H](CO)NC(=O)[C@@H](N)Cc2ccc(O)cc2)[C@@H](C)O)CSC(=O)[C@H](CCSC)NC1=O (H-YSTCAFIM; thioester 4-C)	4 nM	21 nM
